From ChEMBL document CHEMBL1201862, “PubChem BioAssay data set” (2004) come the findings set out here.

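In this assay, cells in 96-well plates receive the compound at five concentrations for 48 hours. Endpoints are linearly interpolated between the surrounding concentrations. The concentration for 50% growth inhibition is given as GI50.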 Activity calls are given as the source filed them. Cut-off read from the data, not from the text of the source: active = GI50 up to about 1.1 µM and inactive = higher.

Test systems include A498; HCT-116; HL-60; HOP-92; M14; Malme-3M; OVCAR-3; OVCAR-4; SF-268; SF-539; SK-OV-3; SN12C; SNB-75; TK-10; U-251; UACC-257; HCT-15.
What all share (experiment): DTP human tumour cell line panel, 48 h

Broadly, the GI50 is the concentration at which growth is held to half of that of the control. On to `CCCCCCCCCCCCC(=O)CCCCC(=O)O`, for which the GI50 in the assay with A498 was 16.8 µM (inactive); in the assay on HCT-116 it was 20.6 µM (inactive); in the assay with HL-60 it was 13.5 µM (inactive); in the assay on HOP-92, 18.6 µM (inactive); with M14, 17.5 µM (inactive); in the assay on Malme-3M, 21.6 µM (inactive). Further, the GI50 is 31.8 µM (inactive) with OVCAR-3; 58.5 µM (inactive) in the assay with OVCAR-4; 31.6 µM (inactive) with SF-268; 17.5 µM (inactive) in the assay with SF-539; 68.2 µM (inactive) with SK-OV-3; 24 µM (inactive) in the assay with SN12C. Besides, the GI50 was 23.4 µM (inactive) with SNB-75, 44.9 µM (inactive) in the assay with TK-10, 24.4 µM (inactive) in the assay on U-251 and 38 µM (inactive) with UACC-257.
Take `O=C1CCC2(c3ccc(Cl)cc3)Nc3ccccc3N12` (stereo unspecified): the GI50 in the assay with A498 was > 100 µM (inactive); in the assay with HCT-116 it was 57 µM (inactive); in the assay on HCT-15 it was 97.1 µM; in the assay on HL-60, 35.5 µM (inactive); with HOP-92, 19.9 µM (inactive); in the assay on Malme-3M it was > 100 µM (inactive). For the same molecule, the GI50 is 75 µM (inactive) with OVCAR-4; 83.9 µM (inactive) with SF-268; > 100 µM (inactive) with SF-539; > 100 µM (inactive) with SN12C; 19.3 µM (inactive) in the assay with SNB-75; > 100 µM (inactive) in the assay on TK-10. In addition, the GI50 in the assay with U-251 and with UACC-257 was > 100 µM (inactive) throughout.
As for `Cc1coc2c1C(=O)C(=O)c1ccccc1-2`, the GI50 in the assay with A498 is 1.83 µM (inactive); in the assay with HCT-116, 0.301 µM (active); with HCT-15 it was 1.27 µM; in the assay with HOP-92, 0.401 µM (active); in the assay with M14, 1.35 µM (inactive); in the assay with Malme-3M, 1.58 µM (inactive). Besides, the GI50 with OVCAR-3 is 1.06 µM (active); with OVCAR-4 it was 1.82 µM (inactive); with SF-539 it was 1.52 µM (inactive); with SK-OV-3, 1.76 µM (inactive); in the assay with SN12C, 0.838 µM (active); in the assay with SNB-75, 1.72 µM (inactive). The GI50 in the assay with TK-10 is 1.9 µM (inactive); in the assay on U-251 it was 1.61 µM (inactive); in the assay with UACC-257, 0.21 µM (active).
With `O=C(NC(Cc1ccccc1)C(=O)CCl)OCc1ccccc1` (stereo unspecified), the GI50 in the assay with A498 was 14.1 µM (inactive); with HCT-116 it was 13.6 µM (inactive); with HCT-15, 5 µM; in the assay with HL-60 it was 3.07 µM (inactive); in the assay with HOP-92, 13 µM (inactive); in the assay on M14, 10.6 µM (inactive). Also, the GI50 was 11.4 µM (inactive) with Malme-3M; 5.24 µM (inactive) in the assay with OVCAR-3; 5.05 µM (inactive) in the assay with SF-268; 4.76 µM (inactive) in the assay with SF-539; 14.4 µM (inactive) with SK-OV-3; 4.91 µM (inactive) in the assay on SN12C. The GI50 with SNB-75 is 11.5 µM (inactive); with TK-10 it was 15 µM (inactive); in the assay on U-251, 10.8 µM (inactive); in the assay with UACC-257, 13 µM (inactive).
Regarding `N#CCC(=O)N/N=C1/C(=O)N(c2cc(Cl)ccc2Cl)C(=O)C(=O)C1c1nc2ccccc2s1` (stereo unspecified), the GI50 is > 100 µM (inactive) in the assay on A498; 84.7 µM (inactive) in the assay on HCT-116; above 100 µM in the assay on HCT-15; 43.9 µM (inactive) in the assay on HL-60; 19.8 µM (inactive) with HOP-92; > 100 µM (inactive) in the assay on M14. For the same molecule, the GI50 in the assay with Malme-3M is > 100 µM (inactive); in the assay on OVCAR-3, 54.6 µM (inactive); in the assay on OVCAR-4, > 100 µM (inactive); in the assay with SF-268, 88.3 µM (inactive); in the assay on SF-539, > 100 µM (inactive); in the assay with SK-OV-3, > 100 µM (inactive). Besides, the GI50 was > 100 µM (inactive) in the assay on SN12C; 38 µM (inactive) in the assay on SNB-75; 81.8 µM (inactive) in the assay with TK-10; 80.9 µM (inactive) with U-251; > 100 µM (inactive) in the assay with UACC-257.
On to `C/C(CCN(C)C)=N\OC(=O)c1ccccc1`, for which the GI50 with A498, in the assay with HCT-116, in the assay with HL-60, in the assay with HOP-92, with M14 and with Malme-3M was > 100 µM (inactive) in each case. In addition, the GI50 in the assay on OVCAR-3, with OVCAR-4, in the assay on SF-268, in the assay with SF-539, in the assay on SK-OV-3 and in the assay on SN12C was > 100 µM (inactive) in each case. In addition, the GI50 with SNB-75 was 50.8 µM (inactive); in the assay on TK-10 it was > 100 µM (inactive); in the assay with U-251, > 100 µM (inactive); in the assay on UACC-257 it was > 100 µM (inactive).
`CNS(=O)(=O)NN(C)S(=O)(=O)c1ccc(C)cc1`: the GI50 in the assay with A498, in the assay on HCT-116, in the assay on HL-60, in the assay on HOP-92, in the assay on M14 and in the assay on Malme-3M was > 100 µM (inactive) throughout. Further, the GI50 with OVCAR-3, in the assay on OVCAR-4, in the assay on SF-268, with SF-539, with SK-OV-3 and in the assay with SN12C was > 100 µM (inactive) in each case. Further, the GI50 with TK-10 and in the assay on UACC-257 was > 100 µM (inactive) in each case.
Take `CC1=C(Cl)C=CP(=O)(OC(C)C)C1` (stereo unspecified): the GI50 in the assay with A498 is > 100 µM (inactive); in the assay with HCT-116, 37.2 µM (inactive); in the assay on HCT-15, above 100 µM; in the assay with HL-60, 52 µM (inactive); with HOP-92, > 100 µM (inactive); in the assay with M14, 61.7 µM (inactive). In addition, the GI50 in the assay on Malme-3M, in the assay on OVCAR-3, in the assay with OVCAR-4, in the assay on SF-268, in the assay on SF-539 and with SN12C was > 100 µM (inactive) throughout. The GI50 in the assay with SNB-75 is 0.39 µM (active); with TK-10, > 100 µM (inactive); in the assay with U-251, > 100 µM (inactive); in the assay on UACC-257 it was > 100 µM (inactive).
For `CCOc1cc(/C=C/C=C/c2ccc(N(C)C)cc2)[s+]c2ccccc12`, the GI50 is 28.2 µM (inactive) in the assay on A498; 21.7 µM (inactive) with HCT-116; 13.8 µM with HCT-15; 0.857 µM (active) in the assay with HL-60; 23.5 µM (inactive) with HOP-92; 38.7 µM (inactive) with M14. Besides, the GI50 was 28.9 µM (inactive) with Malme-3M; 14.2 µM (inactive) with OVCAR-3; 16 µM (inactive) in the assay with OVCAR-4; 18.4 µM (inactive) with SF-268; 14.1 µM (inactive) with SF-539; 34 µM (inactive) with SK-OV-3. Moreover, the GI50 was 35.8 µM (inactive) with SN12C; 28.4 µM (inactive) with SNB-75; 33.2 µM (inactive) in the assay with TK-10; 5.36 µM (inactive) in the assay with U-251; 23.3 µM (inactive) in the assay with UACC-257.
